Assay results: ChEMBL document CHEMBL1122295, “Modified steroid hormones. 7. 4-Fluoro-17 beta-estradiol: carbon-13 nuclear magnetic resonance, crystal and molecular structure, and biological activity” (1983)
Where “and” joins values, the source holds several entries; their conditions need not be identical. Equal entries are not always repeated.

How the values were obtained:
Assay type in all cases: functional
Rattus norvegicus [1] = species: Rattus norvegicus; assay: Effect on the average tumor number was determined in DMBA treated rats on day 8 (3 rats with tumors out of 10 rats)
Rattus norvegicus [2] = species: Rattus norvegicus; assay: Effect on the tumor incidence was determined in DMBA treated rats on day 6 (5 rats with tumors out of 10 rats)
Rattus norvegicus [3] = species: Rattus norvegicus; assay: Effect on the average tumor number was determined in DMBA treated rats on day 6 (5 rats with tumors out of 10 rats)
Rattus norvegicus [4] = species: Rattus norvegicus; assay: Effect on the tumor incidence was determined in DMBA treated rats on day 150 (3 rats with tumors out of 10 rats)
Rattus norvegicus [5] = species: Rattus norvegicus; assay: Effect on the average tumor mass was determined in DMBA treated rats on day 6 (5 rats with tumors out of 10 rats)
Rattus norvegicus [6] = species: Rattus norvegicus; assay: Effect on the average tumor mass was determined in DMBA treated rats on day 8 (3 rats with tumors out of 10 rats)
Rattus norvegicus [7] = species: Rattus norvegicus; assay: Effect on the tumor incidence was determined in DMBA treated rats on day 30 (1 rats with tumors out of 10 rats)
Rattus norvegicus [8] = species: Rattus norvegicus; assay: Effect on the average tumor number was determined in DMBA treated rats on day 1 (5 rats with tumors out of 10 rats)
Rattus norvegicus [9] = species: Rattus norvegicus; assay: Effect on the average tumor mass was determined in DMBA treated rats on day 150 (3 rats with tumors out of 10 rats)
Rattus norvegicus [10] = species: Rattus norvegicus; assay: Effect on the average tumor mass was determined in DMBA treated rats on day 30 (1 rats with tumors out of 10 rats)
Rattus norvegicus [11] = species: Rattus norvegicus; assay: Effect on the average tumor mass was determined in DMBA treated rats on day 1 (5 rats with tumors out of 10 rats)
Rattus norvegicus [12] = species: Rattus norvegicus; assay: Effect on the average tumor number was determined in DMBA treated rats on day 150 (3 rats with tumors out of 10 rats)
Rattus norvegicus [13] = species: Rattus norvegicus; assay: Effect on the tumor incidence was determined in DMBA treated rats on day 8 (3 rats with tumors out of 10 rats)
Rattus norvegicus [14] = species: Rattus norvegicus; assay: Effect on the tumor incidence was determined in DMBA treated rats on day 1 (5 rats with tumors out of 10 rats)
Rattus norvegicus [15] = species: Rattus norvegicus; assay: Effect on the average tumor number was determined in DMBA treated rats on day 30 (1 rats with tumors out of 10 rats)
Rattus norvegicus [16] = species: Rattus norvegicus; assay: Effect on the average tumor mass was determined in DMBA treated rats on day 8 (4 rats with tumors out of 10 rats)
Rattus norvegicus [17] = species: Rattus norvegicus; assay: Effect on the tumor incidence was determined in DMBA treated rats on day 150 (2 rats with tumors out of 10 rats)
Rattus norvegicus [18] = species: Rattus norvegicus; assay: Effect on the tumor incidence was determined in DMBA treated rats on day 8 (4 rats with tumors out of 10 rats)
Rattus norvegicus [19] = species: Rattus norvegicus; assay: Effect on the tumor incidence was determined in DMBA treated rats on day 30 (3 rats with tumors out of 10 rats)
Rattus norvegicus [20] = species: Rattus norvegicus; assay: Effect on the average tumor number was determined in DMBA treated rats on day 30 (3 rats with tumors out of 10 rats)
Rattus norvegicus [21] = species: Rattus norvegicus; assay: Effect on the average tumor mass was determined in DMBA treated rats on day 30 (3 rats with tumors out of 10 rats)
Rattus norvegicus [22] = species: Rattus norvegicus; assay: Effect on the average tumor mass was determined in DMBA treated rats on day 150 (2 rats with tumors out of 10 rats)
Rattus norvegicus [23] = species: Rattus norvegicus; assay: Effect on the average tumor number was determined in DMBA treated rats on day 8 (4 rats with tumors out of 10 rats)
Rattus norvegicus [24] = species: Rattus norvegicus; assay: Effect on the average tumor number was determined in DMBA treated rats on day 150 (2 rats with tumors out of 10 rats)
Rattus norvegicus [25] = species: Rattus norvegicus; assay: Effect on the tumor incidence was determined in DMBA treated rats on day 30 (9 rats with tumors out of 10 rats)
Rattus norvegicus [26] = species: Rattus norvegicus; assay: Effect on the average tumor number was determined in DMBA treated rats on day 150 (9 rats with tumors out of 10 rats)
Rattus norvegicus [27] = species: Rattus norvegicus; assay: Effect on the average tumor number was determined in DMBA treated rats on day 30 (9 rats with tumors out of 10 rats)
Rattus norvegicus [28] = species: Rattus norvegicus; assay: Effect on the average tumor mass was determined in DMBA treated rats on day 30 (9 rats with tumors out of 10 rats)
Rattus norvegicus [29] = species: Rattus norvegicus; assay: Effect on the average tumor mass was determined in DMBA treated rats on day 150 (9 rats with tumors out of 10 rats)
Rattus norvegicus [30] = species: Rattus norvegicus; assay: Effect on the tumor incidence was determined in DMBA treated rats on day 150 (9 rats with tumors out of 10 rats)
Rattus norvegicus [31] = species: Rattus norvegicus; assay: Effect on the tumor incidence was determined in DMBA treated rats on day 6 (4 rats with tumors out of 10 rats)
Rattus norvegicus [32] = species: Rattus norvegicus; assay: Effect on the average tumor mass was determined in DMBA treated rats on day 6 (4 rats with tumors out of 10 rats)
Rattus norvegicus [33] = species: Rattus norvegicus; assay: Effect on the average tumor mass was determined in DMBA treated rats on day 150 (10 rats with tumors out of 10 rats)
Rattus norvegicus [34] = species: Rattus norvegicus; assay: Effect on the tumor incidence was determined in DMBA treated rats on day 30 (10 rats with tumors out of 10 rats)
Rattus norvegicus [35] = species: Rattus norvegicus; assay: Effect on the average tumor number was determined in DMBA treated rats on day 6 (4 rats with tumors out of 10 rats)
Rattus norvegicus [36] = species: Rattus norvegicus; assay: Effect on the average tumor number was determined in DMBA treated rats on day 30 (10 rats with tumors out of 10 rats)
Rattus norvegicus [37] = species: Rattus norvegicus; assay: Effect on the average tumor number was determined in DMBA treated rats on day 150 (10 rats with tumors out of 10 rats)
Rattus norvegicus [38] = species: Rattus norvegicus; assay: Effect on the average tumor mass was determined in DMBA treated rats on day 30 (10 rats with tumors out of 10 rats)
Rattus norvegicus [39] = species: Rattus norvegicus; assay: Effect on the tumor incidence was determined in DMBA treated rats on day 150 (10 rats with tumors out of 10 rats)

SMILES | Tumor number (Rattus norvegicus [1]) | Total tumors (Rattus norvegicus [2]) | Tumor number (Rattus norvegicus [3]) | Total tumors (Rattus norvegicus [4]) | Tumor mass (Rattus norvegicus [5]) | Tumor mass (Rattus norvegicus [6]) | Total tumors (Rattus norvegicus [7]) | Tumor number (Rattus norvegicus [8]) | Tumor mass (Rattus norvegicus [9]) | Tumor mass (Rattus norvegicus [10]) | Tumor mass (Rattus norvegicus [11]) | Tumor number (Rattus norvegicus [12]) | Total tumors (Rattus norvegicus [13]) | Total tumors (Rattus norvegicus [14]) | Tumor number (Rattus norvegicus [15]) | Tumor mass (Rattus norvegicus [16]) | Total tumors (Rattus norvegicus [18]) | Tumor number (Rattus norvegicus [23]) | other results
CC(C)[C@@H]1C(=O)N2CCC[C@H]2[C@]2(O)O[C@](NC(=O)[C@@H]3C=C4c5cccc6[nH]cc(c56)C[C@H]4N(C)C3)(C(C)C)C(=O)N12.C[C@]12CC[C@@H]3c4ccc(O)c(F)c4CC[C@H]3[C@@H]1CC[C@@H]2O.O=C(O)/C=C\C(=O)O | 1 | 5 | 1 | 3 | 0.2 g | 0.2 g | 1 | 1.2 | 2.7 g | 0.3 g | 0.4 g | 1 | 3 | 6 | 1 | – | – | – | –
CC(=O)[C@H]1CC[C@H]2[C@@H]3CCC4=CC(=O)CC[C@]4(C)[C@H]3CC[C@]12C.CC(C)[C@@H]1C(=O)N2CCC[C@H]2[C@]2(O)O[C@](NC(=O)[C@@H]3C=C4c5cccc6[nH]cc(c56)C[C@H]4N(C)C3)(C(C)C)C(=O)N12.C[C@]12CC[C@@H]3c4ccc(O)c(F)c4CC[C@H]3[C@@H]1CC[C@@H]2O.O=C(O)/C=C\C(=O)O | – | 7 | 1.4 | 3 | 0.8 g and 0.6 g | – | 1 | 1 and 1.2 | 1.2 g | 0.5 g | 0.5 g and 0.4 g | 1 | – | 5 and 6 | 1 | 0.5 g and 0.6 g | 5 and 6 | 1.3 and 1.4 | Total tumors (Rattus norvegicus [17]): 5; Total tumors (Rattus norvegicus [19]): 3; Tumor number (Rattus norvegicus [20]): 1; Tumor mass (Rattus norvegicus [21]): 0.3 g; Tumor mass (Rattus norvegicus [22]): 5 g; Tumor number (Rattus norvegicus [24]): 2.5
CC(C)[C@@H]1C(=O)N2CCC[C@H]2[C@]2(O)O[C@](NC(=O)[C@@H]3C=C4c5cccc6[nH]cc(c56)C[C@H]4N(C)C3)(C(C)C)C(=O)N12.O=C(O)/C=C\C(=O)O | – | 6 | 1.2 | – | 0.4 g | – | – | 1.6 | – | – | 0.8 g | – | – | 8 | – | 0.4 g | 5 | 1.3 | Total tumors (Rattus norvegicus [25]): 12; Tumor number (Rattus norvegicus [26]): 1.9; Tumor number (Rattus norvegicus [27]): 1.3; Tumor mass (Rattus norvegicus [28]): 0.4 g; Tumor mass (Rattus norvegicus [29]): 1.7 g; Total tumors (Rattus norvegicus [30]): 16
CC(=O)[C@H]1CC[C@H]2[C@@H]3CCC4=CC(=O)CC[C@]4(C)[C@H]3CC[C@]12C.CC(C)[C@@H]1C(=O)N2CCC[C@H]2[C@]2(O)O[C@](NC(=O)[C@@H]3C=C4c5cccc6[nH]cc(c56)C[C@H]4N(C)C3)(C(C)C)C(=O)N12.O=C(O)/C=C\C(=O)O | 1.3 | – | – | – | – | 0.9 g | – | 1.2 | – | – | 0.4 g | – | 4 | 6 | – | – | – | – | Total tumors (Rattus norvegicus [31]): 4; Tumor mass (Rattus norvegicus [32]): 0.7 g; Tumor mass (Rattus norvegicus [33]): 4 g; Total tumors (Rattus norvegicus [34]): 15; Tumor number (Rattus norvegicus [35]): 1; Tumor number (Rattus norvegicus [36]): 1.5; Tumor number (Rattus norvegicus [37]): 1.7; Tumor mass (Rattus norvegicus [38]): 1.5 g; Total tumors (Rattus norvegicus [39]): 17
